Data reported in patent US10457703B2, “Bile acid derivatives as FXR/TGR5 agonists and methods of use thereof” (ENANTA PHARMACEUTICALS, INC., priority 2015, dated 2019).

Molecular target: human FXR (NR1H4) (Homo sapiens (Human), UniProt Q96RI1)
Assay: Human FXR (NR1H4) Assay (Gal4 promoter driven luciferase reporter, Indigo Bioscience kit);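 as to Efficacy (%): 100% equals the efficacy of CDCA; efficacy normalized to CDCA set as 100%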
Assay type: cell-based
Conditions: for EC50: Human FXR (NR1H4) Assay, potency ranges; for Emax: read-out: Efficacy (%)
In short: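 CHO reporter cells expressing human FXR with an FXR-responsive luciferase reporter, treated with compound doses at 0.2% DMSO. Incubation lasted 22 h at 37 °C before luciferase detection reagent was added. Luminescence was then read.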

Sequence of human FXR (NR1H4) (Q96RI1 whole entry, the tested form may be a part): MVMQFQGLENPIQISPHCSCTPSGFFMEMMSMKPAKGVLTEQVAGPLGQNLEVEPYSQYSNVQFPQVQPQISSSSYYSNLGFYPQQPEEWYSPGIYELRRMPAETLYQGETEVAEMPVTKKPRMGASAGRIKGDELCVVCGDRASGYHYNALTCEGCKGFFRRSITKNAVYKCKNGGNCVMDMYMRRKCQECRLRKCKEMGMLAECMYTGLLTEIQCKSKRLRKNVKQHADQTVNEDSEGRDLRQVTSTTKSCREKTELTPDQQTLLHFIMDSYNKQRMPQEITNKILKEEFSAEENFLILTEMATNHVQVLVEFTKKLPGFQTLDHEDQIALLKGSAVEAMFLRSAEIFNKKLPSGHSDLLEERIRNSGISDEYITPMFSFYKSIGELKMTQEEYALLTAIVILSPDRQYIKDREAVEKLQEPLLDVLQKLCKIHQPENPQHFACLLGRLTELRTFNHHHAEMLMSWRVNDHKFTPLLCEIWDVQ

Row | Structure (SMILES) | EC50 | Emax
1 | CC[C@H]1[C@@H](O)[C@@H]2[C@H](CC[C@]3(C)[C@@H]([C@H](C)CCOC(=O)NS(=O)(=O)C(C)C)CC[C@@H]23)[C@@]2(C)CC[C@@H](O)C[C@@H]12 [Example 75] | < 100 nM | 386%
2 | CC[C@H]1[C@@H](O)[C@@H]2[C@H](CC[C@]3(C)[C@@H]([C@H](C)CCOC(=O)NS(=O)(=O)c4nccs4)CC[C@@H]23)[C@@]2(C)CC[C@@H](O)C[C@@H]12 [Example 104-c] | 1000 to 10000 nM | 34%
3 | CC[C@H]1[C@@H](O)[C@@H]2[C@H](CC[C@]3(C)[C@@H]([C@H](C)CCOC(=O)NS(=O)(=O)c4ncccn4)CC[C@@H]23)[C@@]2(C)CC[C@@H](O)C[C@@H]12 [Example 104-d] | 1000 to 10000 nM | 35%
4 | CC[C@H]1[C@@H](O)[C@@H]2[C@H](CC[C@]3(C)[C@@H]([C@H](C)CCOC(=O)NS(=O)(=O)N4CCOCC4)CC[C@@H]23)[C@@]2(C)CC[C@@H](O)C[C@@H]12 [Example 59] | < 100 nM | 428%
5 | CC[C@H]1[C@@H](O)[C@@H]2[C@H](CC[C@]3(C)[C@@H]([C@H](C)CCOC(=O)Nc4ccc(C(C)(C)C)cc4)CC[C@@H]23)[C@@]2(C)CC[C@@H](O)C[C@@H]12 [Example 166] | 1000 to 10000 nM | 30%
6 | CC[C@H]1[C@@H](O)[C@@H]2[C@H](CC[C@]3(C)[C@@H]([C@H](C)CCOC(=O)NS(=O)(=O)c4ccccc4)CC[C@@H]23)[C@@]2(C)CC[C@@H](O)C[C@@H]12 [Example 60] | < 100 nM | 309%
7 | CC[C@H]1[C@@H](O)[C@@H]2[C@H](CC[C@]3(C)[C@@H]([C@H](C)COC(=O)NS(=O)(=O)c4ccc(-n5ccnn5)cc4)CC[C@@H]23)[C@@]2(C)CC[C@@H](O)C[C@@H]12 [Example 44-g] | < 100 nM | 209%
8 | CC[C@H]1[C@@H](O)[C@@H]2[C@H](CC[C@]3(C)[C@@H]([C@H](C)CCOC(=O)N[C@@H](C)C4CC4)CC[C@@H]23)[C@@]2(C)CC[C@@H](O)C[C@@H]12 [Example 175] | 100 to 1000 nM | 210%
9 | CC[C@H]1[C@@H](O)[C@@H]2[C@H](CC[C@]3(C)[C@@H]([C@H](C)CCOC(=O)NS(=O)(=O)c4ccccn4)CC[C@@H]23)[C@@]2(C)CC[C@@H](O)C[C@@H]12 [Example 72] | 1000 to 10000 nM | 305%
10 | CC[C@H]1[C@@H](O)[C@@H]2[C@H](CC[C@]3(C)[C@@H]([C@H](C)COC(=O)NS(=O)(=O)c4ccc(-n5cnnn5)cc4)CC[C@@H]23)[C@@]2(C)CC[C@@H](O)C[C@@H]12 [Example 44-e] | 100 to 1000 nM | 204%
11 | CC[C@H]1[C@@H](O)[C@@H]2[C@H](CC[C@]3(C)[C@@H]([C@H](C)COC(=O)NS(=O)(=O)c4ccc(N5CCC5)nc4)CC[C@@H]23)[C@@]2(C)CC[C@@H](O)C[C@@H]12 [Example 44-c] | < 100 nM | 183%
12 | CC[C@H]1[C@@H](O)[C@@H]2[C@H](CC[C@]3(C)[C@@H]([C@H](C)CCOC(=O)N4CCCC4)CC[C@@H]23)[C@@]2(C)CC[C@@H](O)C[C@@H]12 [Example 147] | < 100 nM | 228%
13 | CC[C@H]1[C@@H](O)[C@@H]2[C@H](CC[C@]3(C)[C@@H]([C@H](C)COC(=O)NS(=O)(=O)N(C)C)CC[C@@H]23)[C@@]2(C)CC[C@@H](O)C[C@@H]12 [Example 7] | 1000 to 10000 nM | 168%
14 | CC[C@H]1[C@@H](O)[C@@H]2[C@H](CC[C@]3(C)[C@@H]([C@H](C)CCOC(=O)N[C@@H]4CCC[C@@H]4O)CC[C@@H]23)[C@@]2(C)CC[C@@H](O)C[C@@H]12 [Example 206] | < 100 nM | 174%
15 | CC[C@H]1[C@@H](O)[C@@H]2[C@H](CC[C@]3(C)[C@@H]([C@H](C)CCOC(=O)NCC4CCCCC4)CC[C@@H]23)[C@@]2(C)CC[C@@H](O)C[C@@H]12 [Example 188] | 100 to 1000 nM | 459%
16 | CC[C@H]1[C@@H](O)[C@@H]2[C@H](CC[C@]3(C)[C@@H]([C@H](C)CCOC(=O)NS(=O)(=O)c4ccc5c(c4)OCCO5)CC[C@@H]23)[C@@]2(C)CC[C@@H](O)C[C@@H]12 [Example 90] | < 100 nM | 225%
17 | CC[C@H]1[C@@H](O)[C@@H]2[C@H](CC[C@]3(C)[C@@H]([C@H](C)CCOC(=O)Nc4ccc(F)cc4Cl)CC[C@@H]23)[C@@]2(C)CC[C@@H](O)C[C@@H]12 [Example 193] | 1000 to 10000 nM | 179%
18 | CC[C@H]1[C@@H](O)[C@@H]2[C@H](CC[C@]3(C)[C@@H]([C@H](C)COC(=O)N4CCC4)CC[C@@H]23)[C@@]2(C)CC[C@@H](O)C[C@@H]12 [Example 200] | 1000 to 10000 nM | 7%
19 | CC[C@H]1[C@@H](O)[C@@H]2[C@H](CC[C@]3(C)[C@@H]([C@H](C)CCCOC(=O)NS(=O)(=O)C4CCCC4)CC[C@@H]23)[C@@]2(C)CC[C@@H](O)C[C@@H]12 [Example 120] | 100 to 1000 nM | 485%

Row | Structure (SMILES) | EC50 | Emax
20 | CC[C@H]1[C@@H](O)[C@@H]2[C@H](CC[C@]3(C)[C@@H]([C@H](C)CCOC(=O)NS(=O)(=O)c4ccc5c(c4)OCO5)CC[C@@H]23)[C@@]2(C)CC[C@@H](O)C[C@@H]12 [Example 93] | < 100 nM | 288%
21 | CC[C@H]1[C@@H](O)[C@@H]2[C@H](CC[C@]3(C)[C@@H]([C@H](C)CCOC(=O)N(C)C)CC[C@@H]23)[C@@]2(C)CC[C@@H](O)C[C@@H]12 [Example 129] | 100 to 1000 nM | 323%
22 | CC[C@H]1[C@@H](O)[C@@H]2[C@H](CC[C@]3(C)[C@@H]([C@H](C)CCOC(=O)NS(=O)(=O)c4ccc(Cl)cc4)CC[C@@H]23)[C@@]2(C)CC[C@@H](O)C[C@@H]12 [Example 61] | < 100 nM | 270%
23 | CC[C@H]1[C@@H](O)[C@@H]2[C@H](CC[C@]3(C)[C@@H]([C@H](C)CCOC(=O)NS(=O)(=O)N4CCCC4)CC[C@@H]23)[C@@]2(C)CC[C@@H](O)C[C@@H]12 [Example 51] | < 100 nM | 218%
24 | CC[C@H]1[C@@H](O)[C@@H]2[C@H](CC[C@]3(C)[C@@H]([C@H](C)COC(=O)NS(=O)(=O)c4ccc(-n5cnnn5)nc4)CC[C@@H]23)[C@@]2(C)CC[C@@H](O)C[C@@H]12 [Example 44-d] | 100 to 1000 nM | 195%
25 | CC[C@H]1[C@@H](O)[C@@H]2[C@H](CC[C@]3(C)[C@@H]([C@H](C)CCOC(=O)N[C@H]4CCCC[C@@H]4O)CC[C@@H]23)[C@@]2(C)CC[C@@H](O)C[C@@H]12 [Example 168] | 100 to 1000 nM | 302%
26 | CC[C@H]1[C@@H](O)[C@@H]2[C@H](CC[C@]3(C)[C@@H]([C@H](C)CCOC(=O)NS(=O)(=O)c4cccc(OC(F)(F)F)c4)CC[C@@H]23)[C@@]2(C)CC[C@@H](O)C[C@@H]12 [Example 63] | < 100 nM | 396%
27 | CC[C@H]1[C@@H](O)[C@@H]2[C@H](CC[C@]3(C)[C@@H]([C@H](C)CCOC(=O)NC(C)C)CC[C@@H]23)[C@@]2(C)CC[C@@H](O)C[C@@H]12 [Example 136] | 100 to 1000 nM | 185%
28 | CC[C@H]1[C@@H](O)[C@@H]2[C@H](CC[C@]3(C)[C@@H]([C@H](C)CCOC(=O)NS(=O)(=O)N4CC(F)(F)C4)CC[C@@H]23)[C@@]2(C)CC[C@@H](O)C[C@@H]12 [Example 104-j] | < 100 nM | 327%
29 | CC[C@H]1[C@@H](O)[C@@H]2[C@H](CC[C@]3(C)[C@@H]([C@H](C)CCCOC(=O)NCc4ccccc4)CC[C@@H]23)[C@@]2(C)CC[C@@H](O)C[C@@H]12 [Example 124] | 100 to 1000 nM | 225%
30 | CC[C@H]1[C@@H](O)[C@@H]2[C@H](CC[C@]3(C)[C@@H]([C@H](C)CCOC(=O)NS(=O)(=O)c4ccc(OC)c(F)c4)CC[C@@H]23)[C@@]2(C)CC[C@@H](O)C[C@@H]12 [Example 94] | < 100 nM | 268%
31 | CC[C@H]1[C@@H](O)[C@@H]2[C@H](CC[C@]3(C)[C@@H]([C@H](C)COC(=O)NS(=O)(=O)c4ccc(N5CCCCC5)cc4)CC[C@@H]23)[C@@]2(C)CC[C@@H](O)C[C@@H]12 [Example 9] | < 100 nM | 208%
32 | CC[C@H]1[C@@H](O)[C@@H]2[C@H](CC[C@]3(C)[C@@H]([C@H](C)COC(=O)NS(=O)(=O)N4CCCC4)CC[C@@H]23)[C@@]2(C)CC[C@@H](O)C[C@@H]12 [Example 13] | 100 to 1000 nM | 324%
33 | CC[C@H]1[C@@H](O)[C@@H]2[C@H](CC[C@]3(C)[C@@H]([C@H](C)CCOC(=O)N[C@H](C)CCO)CC[C@@H]23)[C@@]2(C)CC[C@@H](O)C[C@@H]12 [Example 172] | 100 to 1000 nM | 201%
34 | CC[C@H]1[C@@H](O)[C@@H]2[C@H](CC[C@]3(C)[C@@H]([C@H](C)COC(=O)NS(=O)(=O)c4ccc(C5CCCCC5)cc4)CC[C@@H]23)[C@@]2(C)CC[C@@H](O)C[C@@H]12 [Example 11] | < 100 nM | 224%
35 | CC[C@H]1[C@@H](O)[C@@H]2[C@H](CC[C@]3(C)[C@@H]([C@H](C)CCOC(=O)NS(=O)(=O)c4ccc5c(c4)CCCC5)CC[C@@H]23)[C@@]2(C)CC[C@@H](O)C[C@@H]12 [Example 89] | < 100 nM | 278%
36 | CC[C@H]1[C@@H](O)[C@@H]2[C@H](CC[C@]3(C)[C@@H]([C@H](C)COC(=O)NS(=O)(=O)c4cccc(OC(C)(C)C)c4)CC[C@@H]23)[C@@]2(C)CC[C@@H](O)C[C@@H]12 [Example 29] | 100 to 1000 nM | 186%
37 | CC[C@H]1[C@@H](O)[C@@H]2[C@H](CC[C@]3(C)[C@@H]([C@H](C)CCOC(=O)NC(C)CO)CC[C@@H]23)[C@@]2(C)CC[C@@H](O)C[C@@H]12 (some centres unmarked) [Example 139] | 100 to 1000 nM | 310%
